Assay results from PubChem BioAssay AID256 (DTP/NCI, 2004).
Values joined by “and” are separate entries in the source; they are usually repeats but may differ in a detail not shown here. Identical values can stand only once. Inconclusive results and toxic doses are left out.

Tested on: CD2F1 mice, L1210 leukemia ip, survival T/C
Experiment: NCI In Vivo Anticancer Drug Screen. Data for tumor model L1210 Leukemia (intraperitoneal) in CD2F1 (CDF1) mice
Conditions: higher = longer survival
How it was run: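 Transplantable tumor in mice; compound-treated vs vehicle-treated groups. Read-out = treated/control ratio of the measured endpoint.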

[1] = endpoint: mean survival time, dose: 50.0 mg/kg/injection, schedule: Q01DX009 (ip), vehicle: saline with Tween-80
[2] = endpoint: mean survival time, dose: 100.0 mg/kg/injection, schedule: Q01DX009 (ip), vehicle: saline with Tween-80
[3] = endpoint: mean survival time, dose: 200.0 mg/kg/injection, schedule: Q01DX009 (ip), vehicle: saline with Tween-80
[4] = endpoint: mean survival time, dose: 400.0 mg/kg/injection, schedule: Q01DX009 (ip), vehicle: saline with Tween-80
[5] = endpoint: mean survival time, dose: 100.0 mg/kg/injection, schedule: Q01DX001 (ip), vehicle: saline with Tween-80
[6] = endpoint: mean survival time, dose: 200.0 mg/kg/injection, schedule: Q01DX001 (ip), vehicle: saline with Tween-80
[7] = endpoint: mean survival time, dose: 400.0 mg/kg/injection, schedule: Q01DX001 (ip), vehicle: saline with Tween-80
[8] = endpoint: mean survival time, dose: 100.0 mg/kg/injection, schedule: Q04DX002 (ip), vehicle: saline with Tween-80

SMILES: O=CC=O
- T/C (endpoint: mean survival time, dose: 12.5 mg/kg/injection, schedule: Q01DX009 (ip), vehicle: saline with Tween-80): 100 % of control and 106 % of control
- T/C (endpoint: mean survival time, dose: 25.0 mg/kg/injection, schedule: Q01DX009 (ip), vehicle: saline with Tween-80): 103 % of control and 107 % of control
- T/C [1]: 97 % of control and 106 % of control
- T/C [2]: 115 % of control and 107 % of control
- T/C [3]: 106 % of control and 111 % of control
- T/C [4]: 120 % of control and 108 % of control

SMILES: CCN(CC)c1ccc2c(-c3ccccc3C(=O)O)c3ccc(=[N+](CC)CC)cc-3oc2c1
- T/C (endpoint: mean survival time, dose: 5.0 mg/kg/injection, schedule: Q04DX003 (ip), vehicle: saline with Tween-80): 105 % of control
- T/C (endpoint: mean survival time, dose: 10.0 mg/kg/injection, schedule: Q04DX003 (ip), vehicle: saline with Tween-80): 105 % of control
- T/C (endpoint: mean survival time, dose: 20.0 mg/kg/injection, schedule: Q04DX003 (ip), vehicle: saline with Tween-80): 102 % of control
- T/C [2]: 101 % of control
- T/C [3]: 103 % of control
- T/C [4]: 100 % of control

SMILES: CC[N+]1(C2CCC3CCC2C3O)CCOCC1 (stereo not drawn)
- T/C (endpoint: mean survival time, dose: 25.0 mg/kg/injection, schedule: Q01DX009 (ip), vehicle: saline): 91 % of control
- T/C (endpoint: mean survival time, dose: 25.0 mg/kg/injection, schedule: Q04DX003 (ip), vehicle: saline): 95 % of control
- T/C (endpoint: mean survival time, dose: 50.0 mg/kg/injection, schedule: Q01DX009 (ip), vehicle: saline): 94 % of control
- T/C (endpoint: mean survival time, dose: 50.0 mg/kg/injection, schedule: Q04DX003 (ip), vehicle: saline): 97 % of control
- T/C [5]: 100 % of control
- T/C (endpoint: mean survival time, dose: 100.0 mg/kg/injection, schedule: Q01DX009 (ip), vehicle: saline): 92 % of control
- T/C (endpoint: mean survival time, dose: 100.0 mg/kg/injection, schedule: Q04DX003 (ip), vehicle: saline): 100 % of control

SMILES: O=C(O)C(O)c1ccccc1 (stereo not drawn)
- T/C (endpoint: mean survival time, dose: 100.0 mg/kg/injection, schedule: Q04DX002 (ip), vehicle: saline): 101 % of control
- T/C (endpoint: mean survival time, dose: 200.0 mg/kg/injection, schedule: Q04DX002 (ip), vehicle: saline): 114 % of control

SMILES: O=C(OCc1ccccc1)c1cc([N+](=O)[O-])c(Cl)c([N+](=O)[O-])c1
- T/C [5]: 101 % of control
- T/C [2]: 97 % of control
- T/C [6]: 97 % of control
- T/C [3]: 98 % of control
- T/C [7]: 98 % of control

SMILES: O=C(Nc1ccc2ccccc2c1)c1ccc(Cl)cc1Cl
- T/C (endpoint: mean survival time, dose: 100.0 mg/kg/injection, schedule: Q04DX003 (ip), vehicle: saline with Tween-80): 96 % of control
- T/C (endpoint: mean survival time, dose: 200.0 mg/kg/injection, schedule: Q04DX003 (ip), vehicle: saline with Tween-80): 98 % of control
- T/C (endpoint: mean survival time, dose: 400.0 mg/kg/injection, schedule: Q04DX003 (ip), vehicle: saline with Tween-80): 95 % of control

SMILES: CCOC(=O)/C=C\C1CCCCC1
- T/C [1]: 93 % of control
- T/C [2]: 108 % of control
- T/C [3]: 104 % of control

SMILES: c1ccc(COCC2OC(C3N(c4ccccc4)CCN3c3ccccc3)C(OCc3ccccc3)C2OCc2ccccc2)cc1 (stereo not drawn)
- T/C (endpoint: mean survival time, dose: 12.5 mg/kg/injection, schedule: Q01DX005 (ip), vehicle: distilled water + Tween-80): 102 % of control
- T/C (endpoint: mean survival time, dose: 25.0 mg/kg/injection, schedule: Q01DX005 (ip), vehicle: distilled water + Tween-80): 98 % of control
- T/C (endpoint: mean survival time, dose: 50.0 mg/kg/injection, schedule: Q01DX005 (ip), vehicle: distilled water + Tween-80): 102 % of control
- T/C (endpoint: mean survival time, dose: 100.0 mg/kg/injection, schedule: Q01DX005 (ip), vehicle: distilled water + Tween-80): 97 % of control
- T/C (endpoint: mean survival time, dose: 200.0 mg/kg/injection, schedule: Q01DX005 (ip), vehicle: distilled water + Tween-80): 92 % of control

SMILES: COc1ccc(C(=O)C(=O)c2ccccc2Cl)cc1
- T/C [8]: 98 % of control
- T/C (endpoint: mean survival time, dose: 200.0 mg/kg/injection, schedule: Q04DX002 (ip), vehicle: saline with Tween-80): 102 % of control
- T/C (endpoint: mean survival time, dose: 400.0 mg/kg/injection, schedule: Q04DX002 (ip), vehicle: saline with Tween-80): 95 % of control

SMILES: Cc1ccc(C2OC2C(=O)c2ccccc2)cc1 (stereo not drawn)
- T/C (endpoint: mean survival time, dose: 50.0 mg/kg/injection, schedule: Q04DX002 (ip), vehicle: saline with Tween-80): 95 % of control
- T/C [5]: 94 % of control
- T/C [8]: 91 % of control
- T/C [6]: 92 % of control
- T/C [7]: 94 % of control

SMILES: O=NN(CCF)C(=O)NC1C(O)CCCC1O (stereo not drawn)
- T/C (endpoint: median survival time, dose: 1.25 mg/kg/injection, schedule: Q01DX001 (ip), vehicle: saline): 120 % of control
- T/C (endpoint: median survival time, dose: 2.5 mg/kg/injection, schedule: Q01DX001 (ip), vehicle: saline): 116 % of control
- T/C (endpoint: median survival time, dose: 5.0 mg/kg/injection, schedule: Q01DX001 (ip), vehicle: saline): 160 % of control
- T/C (endpoint: median survival time, dose: 5.0 mg/kg/injection, schedule: Q04DX002 (ip), vehicle: saline): 178 % of control
- T/C (endpoint: median survival time, dose: 10.0 mg/kg/injection, schedule: Q01DX001 (ip), vehicle: saline): 168 % of control
- T/C (endpoint: median survival time, dose: 10.0 mg/kg/injection, schedule: Q04DX002 (ip), vehicle: saline): 231 % of control and 232 % of control
- T/C (endpoint: median survival time, dose: 20.0 mg/kg/injection, schedule: Q01DX001 (ip), vehicle: saline): 337 % of control
- T/C (endpoint: median survival time, dose: 20.0 mg/kg/injection, schedule: Q04DX002 (ip), vehicle: saline): 361 % of control and 365 % of control
- T/C (endpoint: median survival time, dose: 40.0 mg/kg/injection, schedule: Q01DX001 (ip), vehicle: saline): 337 % of control
- T/C (endpoint: median survival time, dose: 40.0 mg/kg/injection, schedule: Q04DX002 (ip), vehicle: saline): 182 % of control and 361 % of control

SMILES: Cc1ccc(NC(=O)N(CCCl)N=O)cc1
- T/C (endpoint: mean survival time, dose: 9.0 mg/kg/injection, schedule: Q01DX015 (ip), vehicle: saline): 189 % of control
- T/C (endpoint: mean survival time, dose: 15.0 mg/kg/injection, schedule: Q01DX015 (ip), vehicle: saline): 193 % of control
- T/C (endpoint: mean survival time, dose: 25.0 mg/kg/injection, schedule: Q01DX015 (ip), vehicle: saline): 87 % of control
